Assay results from ChEMBL document CHEMBL4033699, “Insights into the myosin II inhibitory potency of A-ring-modified (S)-blebbistatin analogs” (Bioorg Med Chem Lett, 2017).

Columns and labels:
[1] = Inhibition of F-actin activated rabbit full length myosin 2 ATPase activity after 1 hr by CytoPhos reagent based assay; design: species or system Oryctolagus cuniculus
[2] = Solubility of the compound in Tris-HCl at pH 7.5; type: physicochemical; conditions: Tris-HCl buffer

## C=CCN1CCc2cc3c(cc21)N=C1N(c2ccccc2)CC[C@@]1(O)C3=O
[1]
  IC50: 8.46 µM
[2]
  solubility: < 40 µM

## O=C1c2cc3ccccc3cc2N=C2N(c3ccccc3)CC[C@@]12O
[1]
  IC50: 7.97 µM
[2]
  solubility: < 15 µM

## O=C1c2cc3cc[nH]c3cc2N=C2N(c3ccccc3)CC[C@@]12O
[1]
  IC50: > 20 µM
[2]
  solubility: < 40 µM

## O=C1c2cc3c(cc2N=C2N(c4ccccc4)CC[C@@]12O)NCC3
[1]
  IC50: 14.5 µM
[2]
  solubility: < 50 µM

## Cc1ccc2c(c1)C(=O)[C@]1(O)CCN(c3ccccc3)C1=N2
[1]
  IC50: 1.02 µM
[2]
  solubility: < 100 µM
